From patent publication US10201523B2, “Use of wilforlide A for overcoming chemotherapy resistance” (WESTERN UNIVERSITY OF HEALTH SCIENCES, priority 2013, dated 2019)
“And” between values parts separate entries of the source, which are not always exact repeats. Equal values may be shown once. Read-outs that look alike come from different tables or passages of the source.

Assays:
[1] = tested on: K562/Dox; assay: SRB cell viability assay, daunorubicin with/without wilforlide A pretreatment; type: cell-based; conditions: for viability at 0.001 µM / viability at 0.1 µM / viability at 0.333 µM / viability at 1 µM / viability at 3.33 µM / viability at 10 µM / viability at 33.3 µM / viability at 100 µM / IC50: Homo sapiens; for A at 565 nm: background = 0.043
Description: Wilforlide A sensitizes the daunorubicin-resistant myelogenous leukemia line K562/Dox, to daunorubicin. […] FIG. 5 summarizes the data of Tables 20 and 21 in a graphical format.

[2] = tested on: K562; assay: SRB cell viability assay, daunorubicin IC50; type: cell-based; conditions: Homo sapiens, 72 h, read-out: Drug IC50 no pre-Tx
[3] = K562/Dox, no wilforlide A pre-Tx, daunorubicin 0.001 μM 72 h
[4] = K562/Dox, no wilforlide A pre-Tx, daunorubicin 0.333 μM 72 h
[5] = K562/Dox, no wilforlide A pre-Tx, daunorubicin 1 μM 72 h
[6] = K562/Dox, no wilforlide A pre-Tx, daunorubicin 3.33 μM 72 h
[7] = K562/Dox, no wilforlide A pre-Tx, daunorubicin 10 μM 72 h
[8] = K562/Dox, no wilforlide A pre-Tx, daunorubicin 33.3 μM 72 h
[9] = K562/Dox, no wilforlide A pre-Tx, daunorubicin 100 μM 72 h
[10] = K562/Dox, wilforlide A 2.5 μg/ml pre-Tx, daunorubicin 0.001 μM 72 h
[11] = K562/Dox, wilforlide A 2.5 μg/ml pre-Tx, daunorubicin 0.333 μM 72 h
[12] = K562/Dox, wilforlide A 2.5 μg/ml pre-Tx, daunorubicin 1 μM 72 h
[13] = K562/Dox, wilforlide A 2.5 μg/ml pre-Tx, daunorubicin 3.33 μM 72 h
[14] = K562/Dox, wilforlide A 2.5 μg/ml pre-Tx, daunorubicin 10 μM 72 h
[15] = K562/Dox, wilforlide A 2.5 μg/ml pre-Tx, daunorubicin 33.3 μM 72 h
[16] = K562/Dox, wilforlide A 2.5 μg/ml pre-Tx, daunorubicin 100 μM 72 h

## COc1cccc2c1C(=O)c1c(O)c3c(c(O)c1C2=O)C[C@@](O)(C(C)=O)C[C@@H]3O[C@H]1C[C@H](N)[C@H](O)[C@H](C)O1 [daunorubicin]
[1]; K562, 72 h, K562/Dox, no wilforlide A pre-Tx, daunorubicin 0.001 μM 72 h
  viability at 0.001 µM: 100%
[1]; K562, 72 h, K562/Dox, no wilforlide A pre-Tx, daunorubicin 0.1 μM 72 h
  viability at 0.1 µM: 58.1%
[1]; K562, 72 h, K562/Dox, no wilforlide A pre-Tx, daunorubicin 0.333 μM 72 h
  viability at 0.333 µM: 102%
[1]; K562, 72 h, K562/Dox, no wilforlide A pre-Tx, daunorubicin 1 μM 72 h
  viability at 1 µM: 99.6%
[1]; K562, 72 h, K562/Dox, no wilforlide A pre-Tx, daunorubicin 3.33 μM 72 h
  viability at 3.33 µM: 95.9%
[1]; K562, 72 h, K562/Dox, no wilforlide A pre-Tx, daunorubicin 10 μM 72 h
  viability at 10 µM: 92.3%
[1]; K562, 72 h, K562/Dox, no wilforlide A pre-Tx, daunorubicin 33.3 μM 72 h
  viability at 33.3 µM: 53.8%
[1]; K562, 72 h, K562/Dox, no wilforlide A pre-Tx, daunorubicin 100 μM 72 h
  viability at 100 µM: 22.4%
[1]; K562, 72 h, K562/Dox, wilforlide A 2.5 μg/ml pre-Tx, daunorubicin 0.001 μM 72 h
  viability at 0.001 µM: 100%
[1]; K562, 72 h, K562/Dox, wilforlide A 2.5 μg/ml pre-Tx, daunorubicin 0.1 μM 72 h
  viability at 0.1 µM: 54.1%
[1]; K562, 72 h, K562/Dox, wilforlide A 2.5 μg/ml pre-Tx, daunorubicin 0.333 μM 72 h
  viability at 0.333 µM: 104%
[1]; K562, 72 h, K562/Dox, wilforlide A 2.5 μg/ml pre-Tx, daunorubicin 1 μM 72 h
  viability at 1 µM: 99%
[1]; K562, 72 h, K562/Dox, wilforlide A 2.5 μg/ml pre-Tx, daunorubicin 3.33 μM 72 h
  viability at 3.33 µM: 95.4%
[1]; K562, 72 h, K562/Dox, wilforlide A 2.5 μg/ml pre-Tx, daunorubicin 10 μM 72 h
  viability at 10 µM: 78.6%
[1]; K562, 72 h, K562/Dox, wilforlide A 2.5 μg/ml pre-Tx, daunorubicin 33.3 μM 72 h
  viability at 33.3 µM: 33.7%
[1]; K562, 72 h, K562/Dox, wilforlide A 2.5 μg/ml pre-Tx, daunorubicin 100 μM 72 h
  viability at 100 µM: 29.6%
[1]; K562, 72 h, read-out: Drug IC50 no pre-Tx
  IC50: 30.7 µM
[1]; K562, read-out: Drug IC50 after wilforlide A pre-Tx
  IC50: 13.6 µM
[1]; [3]
  mean A: 2.893
  A at 565 nm: 2.848 and 2.923 and 2.909
[1]; K562/Dox, no wilforlide A pre-Tx, daunorubicin 0.1 μM 72 h
  mean A: 1.682
[1]; [4]
  mean A: 2.951
  A at 565 nm: 2.943 and 2.956 and 2.955
[1]; [5]
  mean A: 2.880
  A at 565 nm: 2.892 and 2.878 and 2.872
[1]; [6]
  mean A: 2.775
  A at 565 nm: 2.805 and 2.780 and 2.741
[1]; [7]
  mean A: 2.670
  A at 565 nm: 2.678 and 2.720 and 2.613
[1]; [8]
  mean A: 1.556
  A at 565 nm: 1.625 and 1.639 and 1.406
[1]; [9]
  mean A: 0.647
  A at 565 nm: 0.757 and 0.657 and 0.528
[1]; [10]
  mean A: 2.815
  A at 565 nm: 2.797 and 2.838 and 2.810
[1]; K562/Dox, wilforlide A 2.5 μg/ml pre-Tx, daunorubicin 0.1 μM 72 h
  mean A: 1.522
[1]; [11]
  mean A: 2.938
  A at 565 nm: 2.838 and 2.951 and 3.025
[1]; [12]
  mean A: 2.786
  A at 565 nm: 2.777 and 2.784 and 2.799
[1]; [13]
  mean A: 2.684
  A at 565 nm: 2.657 and 2.681 and 2.715
[1]; [14]
  mean A: 2.213
  A at 565 nm: 2.200 and 2.392 and 2.049
[1]; [15]
  mean A: 0.947
  A at 565 nm: 1.016 and 0.901 and 0.926
[1]; [16]
  mean A: 0.832
  A at 565 nm: 0.843 and 0.815 and 0.840
[1]; chemosensitization effect, K562/Dox, wilforlide A 2.5 μg/ml pre-Tx
  CE: 2.27
[2]
  IC50: 1050 nM
